5 compounds from patent US20190225557A1, “IMPROVED UREA-BASED C[…] SULPHUR AND METHOD FOR THE MANUFACTURE THEREOF” (YARA INT[…], priority 2016, published 2019) can be followed below.

Data set [1] is classed as physicochemical. The following applies: urea + 10.5% ES + 500 ppm nBTPT as Amiplus liquid (Exp. H-M); open pots in nissenhut; measured after 28 days (ranking given as after 14 days). How it is done: (§1) 1.2 kg of solid fertilizer material was added to a lab scale drum. In a next step, the nBTPT material was slowly added and subsequently followed, if applied, by an alkaline or alkaline-forming inorganic or organic compound. A residence time of 10 minutes was applied and the rotating speed of the drum was consequently the same in each experiment. In case a moisture-repellent coating was added, a nebulizer was used and, depending on the order of addition, the moisture-repellent coating was added before or after addition of the nBTPT material. Before use, the moisture-repellent coating was preheated to 80° C.
Typically, a day/night cycle is generated in the nissenhut, with temperature fluctuations between 0 to 42° C. and fluctuations of relative humidity between 20 and 90%, which can be compared with real life storage in silos.
The samples were stored 28 days in open pots in nissenhut.
The samples were stored for 28 days in open pots in nissenhut.

Data set [2] is described as follows: Accelerated storage stability of nBTPT on fertilizer granules (HPLC analysis of nBTPT content). Type of data set: physicochemical. The following applies: nBTPT formulations (500 ppm powder or Agrotain Ultra) applied onto urea comprising 9% elemental sulphur (samples B, C); 12 days at 70° C. in closed plastic container. As to the method:
as §1
For some samples, an accelerated stability test was done after storing these samples at elevated temperatures: • Oven of 30° C., open to air • 70° C. in a closed plastic container
HPLC analysis of nBTPT is done as described in the procedure CEN 15688-2007.
This set of samples was stored at room temperature (20-25° C.) in bags and at elevated temperature (30° C. and 70° C., accelerated stability test).

For `[O]=[Zn]` [ZnO, zinc oxide], in data set [1], the “effectivity of the stabilizers (ranking) on stability of nBTPT” value is given as “CaCO3═MgO>CaO>ZnO>Et3N>no stabilizer”.
The same measure, in the same setting: the result for `[O]=[Mg]` [MgO, magnesium oxide] reads “CaCO3═MgO>CaO>ZnO>Et3N>no stabilizer”.
With `CCCCNP(N)(N)=S` [nBTPT, N-(n-butyl) thiophosphoric triamide], in data set [2], the “nBTPT level after storage” value is recorded as 0 weight %.
As for `O=C([O-])[O-].[Ca+2]` [CaCO3, calcium carbonate], the “effectivity of the stabilizers (ranking) on stability of nBTPT” value in data set [1] is on record as “CaCO3═MgO>CaO>ZnO>Et3N>no stabilizer”.
On the same count and under the same terms, the result for `[O]=[Ca]` [CaO, calcium oxide] reads “CaCO3═MgO>CaO>ZnO>Et3N>no stabilizer”.
